This passage reports IC50 results from patent US8853230B2, “Inhibitors of JAK” (Portola Pharmaceuticals, Inc., priority 2009, dated 2014).

Common to all, as to assay type: biochemical
For test [1], the target named is T1, JAK3 (Homo sapiens, UniProt P52333).
T1 construct: 5 μl of catalytic domain recombinant Kinase enzyme+Tyr peptide substrate (Invitrogen, Calif.); purchased Invitrogen
As to the kind of experiment: Z'-LYTE kinase assay, JAK3 tyrosine phosphorylation activity. The essentials: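 Catalytic-domain recombinant enzymes phosphorylate a coumarin/fluorescein-labelled Tyr6 peptide for 1 h at room temperature in the presence of ATP and compound (1% DMSO). Development Reagent then cleaves non-phosphorylated peptide over 1 h, and emission ratio 445/520 nm (ex 400 nm) gives percent phosphorylation; IC50 by 4-parameter logistic model.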

Test [2] deals with T2, JAK2 (Homo sapiens, UniProt O60674).
T2 construct: 5 μl of catalytic domain recombinant Kinase enzyme+Tyr peptide substrate (Invitrogen, Calif.); purchased Invitrogen
T2 sequence (O60674 849-1124 limits assumed): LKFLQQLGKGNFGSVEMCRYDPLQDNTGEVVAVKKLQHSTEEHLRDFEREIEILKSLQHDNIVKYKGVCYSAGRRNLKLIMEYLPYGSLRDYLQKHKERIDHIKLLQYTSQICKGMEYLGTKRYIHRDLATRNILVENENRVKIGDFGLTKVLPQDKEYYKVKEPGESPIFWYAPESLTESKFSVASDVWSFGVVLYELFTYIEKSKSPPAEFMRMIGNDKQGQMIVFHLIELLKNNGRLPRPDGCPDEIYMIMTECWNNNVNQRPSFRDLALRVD
Kind of test: Z'-LYTE kinase assay, JAK2 tyrosine phosphorylation activity. The procedure: (§1) JAK and TYK2 tyrosine phosphorylation activity is measured using the Z′-LYTE™ Technology developed by Invitrogen Corporation (Carlsbad, Calif.). For JAK1, JAK2 and JAK3 the Z′-LYTE™ Kinase Assay Kit-Tyr6 Peptide (part number PV4122) was used. For TYK2 the Z′-LYTE™ Kinase Assay Kit-Tyr6 Peptide (part number PV3192) was used. The Z′-LYTE™ biochemical assay employs a fluorescence resonance energy transfer (FRET) coupled-enzyme format and is based on the differential sensitivity of phosphorylated and non-phosphorylated peptides to proteolitic cleavage. The assay uses a synthetic peptide substrate that is labelled with a donor fluorophore (coumarin) and an acceptor fluorophore (fluorescein) that make up a FRET pair. In the primary reaction (the Kinase Reaction), the kinase transfers the γ-phosphate of ATP to a single tyrosine residue on the substrate, while the presence of a kinase inhibitor in the primary reaction suppresses phosphorylation. In the secondary reaction (the Development Reaction), a site-specific protease (the Development Reagent) is added. The development buffer quenches the Kinase Reaction, while the protease recognizes and cleaves non-phosphorylated Z′-LYTE™ peptide substrate. Cleavage disrupts FRET between the donor and acceptor fluorophores on the non-phosphoryleted substrate, while uncleaved, phosphorylated substrate maintains FRET.
(§2) To test the ability of candidate molecules to inhibit JAK tyrosine phosphorylation activity, molecules are reconstituted in 100% DMSO and serially diluted 1:10 in polypropylene v-bottom microtiter plates. The candidate molecules are then diluted 1:25 into kinase buffer and 2.5 μl transferred into duplicate wells of a 384 well low volume black microtiter assay plate (Corning, USA). The final DMSO concentration in the assay is 1%. The kinase reaction contains 2.5 μl of a candidate molecule, 5 μl of catalytic domain recombinant Kinase enzyme+Tyr peptide substrate (Invitrogen, Calif.) and 2.5 μl ATP (Invitrogen, Calif.). The kinase reaction is allowed to procede for 1 hour at room temperature. The protease reaction is initiated by the addition of 5 μl Development Reagent (Invitrogen, Calif.). After 1 hour incubation at room temperature the fluorescence is measured using a FlexStation plate reader (Molecular Devices, Sunnyvale, Calif.). The reader settings used are as follows: Fluorescence mode, endpoint, top read, excitation 400 nm, emission 445 nm and 520 nm, Auto Cutoff 435 nm and 515 nm, PMT sensitivity high, 6 reads per well. Inhibition of JAK activity is calculated as the percent phosphorylation of substrate in the presence of inhibitor compared to the percent phosphorylation of substrate in the absence of inhibitor. IC50's were derived using Xlfit 4.3 (IDBS, UK), 4 parameter logistic model 205: Y=(A+((B−A)/(1+((C/x)^D)))).

For test [3], the target named is T3, JAK1 (Homo sapiens, UniProt P23458).
T3 construct: 5 μl of catalytic domain recombinant Kinase enzyme+Tyr peptide substrate (Invitrogen, Calif.); purchased Invitrogen
T3 sequence (P23458 875-1153 limits assumed): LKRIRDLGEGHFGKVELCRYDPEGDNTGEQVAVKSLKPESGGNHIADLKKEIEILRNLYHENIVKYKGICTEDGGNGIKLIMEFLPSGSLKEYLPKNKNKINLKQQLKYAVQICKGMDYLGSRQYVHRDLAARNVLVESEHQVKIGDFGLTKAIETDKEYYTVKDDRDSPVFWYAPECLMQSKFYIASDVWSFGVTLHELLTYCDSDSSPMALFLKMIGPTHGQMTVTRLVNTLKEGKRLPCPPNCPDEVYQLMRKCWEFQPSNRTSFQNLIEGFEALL
As to the kind of experiment: Z'-LYTE kinase assay, JAK1 tyrosine phosphorylation activity. Particulars: read-out: JAK 1 IC50. As to the method: as §1, §2

Test [4] has as its target T4, TYK2 (Homo sapiens, UniProt P29597).
T4 construct: 5 μl of catalytic domain recombinant Kinase enzyme+Tyr peptide substrate (Invitrogen, Calif.); purchased Invitrogen
T4 sequence (P29597 897-1176 limits assumed): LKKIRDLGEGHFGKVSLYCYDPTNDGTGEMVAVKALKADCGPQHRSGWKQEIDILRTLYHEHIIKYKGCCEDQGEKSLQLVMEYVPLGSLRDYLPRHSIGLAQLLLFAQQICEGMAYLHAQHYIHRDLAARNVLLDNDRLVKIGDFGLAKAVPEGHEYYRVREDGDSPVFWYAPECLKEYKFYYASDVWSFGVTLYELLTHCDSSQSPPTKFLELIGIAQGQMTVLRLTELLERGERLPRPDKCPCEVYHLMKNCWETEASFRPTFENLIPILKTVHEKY
As to the kind of experiment: Z'-LYTE kinase assay, TYK2 tyrosine phosphorylation activity. As to the method: as §1, §2

T1 sequence (P52333 822-1111 limits assumed): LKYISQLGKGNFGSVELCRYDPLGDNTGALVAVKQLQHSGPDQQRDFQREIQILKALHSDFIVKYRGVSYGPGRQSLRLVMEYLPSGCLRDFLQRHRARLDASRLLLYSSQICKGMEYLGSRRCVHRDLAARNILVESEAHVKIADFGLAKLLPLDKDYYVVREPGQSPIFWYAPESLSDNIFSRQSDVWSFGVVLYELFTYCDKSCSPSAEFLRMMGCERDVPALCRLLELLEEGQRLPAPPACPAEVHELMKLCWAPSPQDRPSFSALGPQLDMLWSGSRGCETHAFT

As a reminder, the IC50 is the concentration that inhibits the measured activity by half. As for `CC(=O)Nc1cccc(Nc2ncc(C(N)=O)c(NCC3CCCN(C(=O)Nc4ccc(F)cc4)C3)n2)c1` (stereo not shown) [Example 118, 2-(3-acetamidophenylamino)-4-((1-(4-fluorophenylcarbamoyl)piperidin-3-yl)methylamino)pyrimidine-5-carboxamide], the IC50 in test [1] was in the range of 1 to 10 nM; in test [2] it was 10 to 100 nM; in test [3], 10 to 100 nM; in test [4], 10 to 100 nM.
Consider `CC(=O)Nc1cccc(Nc2ncc(C(N)=O)c(NCC3CCCN(S(C)(=O)=O)C3)n2)c1` (stereo not shown) [Example 120, 2-(3-acetamidophenylamino)-4-((1-(methylsulfonyl)piperidin-3-yl)methylamino)pyrimidine-5-carboxamide], for which the IC50 in test [1] was 1 to 10 nM; in test [2], 10 to 100 nM; in test [3], 10 to 100 nM; in test [4], 10 to 100 nM.
As to `C[C@@H](Nc1nc(Nc2cccc(N(C)C(=O)N3CCCC3)c2)ncc1C(N)=O)c1ccccc1` [Example 122, (R)-2-(3-(N-methylpyrrolidine-1-carboxamido)phenylamino)-4-(1-phenylethylamino)pyrimidine-5-carboxamide], the IC50 in test [1] was 1 to 10 nM; in test [2], 10 to 100 nM; in test [3], 100 to 1000 nM; in test [4], 100 to 1000 nM.
As for `NC(=O)c1cnc(Nc2cccc(NC(=O)N3CCCC3)c2)nc1NCC1CC1` [Example 123, 4-(cyclopropylmethylamino)-2-(3-(pyrrolidine-1-carboxamido)phenylamino)pyrimidine-5-carboxamide], the IC50 fell in the range of 1 to 10 nM in test [1], 10 to 100 nM in test [2], 10 to 100 nM in test [3] and 1 to 10 nM in test [4].
For `COCC(=O)Nc1cccc(Nc2ncc(C(N)=O)c(NCC3CC3)n2)c1` [Example 124, 4-(cyclopropylmethylamino)-2-(3-(2-methoxyacetamido)phenylamino)pyrimidine-5-carboxamide], the IC50 in test [1] was 1 to 10 nM; in test [2] it was 10 to 100 nM; in test [3] it was 10 to 100 nM; in test [4] it was 1 to 10 nM.
On to `COCC(=O)N(C)c1cccc(Nc2ncc(C(N)=O)c(NCC3CC3)n2)c1` [Example 125, 4-(cyclopropylmethylamino)-2-(3-(2-methoxy-N-methylacetamido)phenylamino)pyrimidine-5-carboxamide], for which the half-inhibitory concentration (IC50) in test [1], in test [2], in test [3] and in test [4] was 10 to 100 nM in each case.
In the case of `CC(=O)N(C)c1cccc(Nc2ncc(C(N)=O)c(NCC3CC3)n2)c1` [Example 126, 4-(cyclopropylmethylamino)-2-(3-(N-methylacetamido)phenylamino)pyrimidine-5-carboxamide], the IC50 in test [1], in test [2], in test [3] and in test [4] was 10 to 100 nM in each case.
On to `CN(C(=O)N1CCCC1)c1cccc(Nc2ncc(C(N)=O)c(NCC3CC3)n2)c1` [Example 127, 4-(cyclopropylmethylamino)-2-(3-(N-methylpyrrolidine-1-carboxamido)phenylamino)pyrimidine-5-carboxamide], for which the IC50 was 10 to 100 nM in test [1], 10 to 100 nM in test [2], 100 to 1000 nM in test [3] and 100 to 1000 nM in test [4].
With `CNc1nc(Nc2cccc(NC(=O)N3CCCC3)c2)ncc1C(N)=O` [Example 133, 4-(methylamino)-2-(3-(pyrrolidine-1-carboxamido)phenylamino)pyrimidine-5-carboxamide], the IC50 in test [1] fell in the range of 10 to 100 nM; in test [2], 100 to 1000 nM; in test [3], 100 to 1000 nM; in test [4], 10 to 100 nM.
As for `CCNc1nc(Nc2cccc(NC(=O)N3CCCC3)c2)ncc1C(N)=O` [Example 134, 4-(ethylamino)-2-(3-(pyrrolidine-1-carboxamido)phenylamino)pyrimidine-5-carboxamide], the half-maximal inhibitory concentration (IC50) lay within 1 to 10 nM in test [1], 10 to 100 nM in test [2], 10 to 100 nM in test [3] and 10 to 100 nM in test [4].
